Laboratory results as given in patent publication US3980794A, “Method for promoting growth of poultry with 3-(5-nitro-2-imidazolyl)pyrazoles” (Eli Lilly and Company, priority 1975, dated 1976).
In brackets after ≈: the same amount, converted by molar mass. Where two headings read alike, the source gives them in different places.

Legend:
Assay type in all cases: cell-based
[1] = system: Peptostreptococcus intermedius 1264; assay: Susceptibility of anaerobic bacteria, agar dilution; settings: 24 h; Peptostreptococcus intermedius 1264; read-out: 24 Hr. Minimum Inhibitory Concentration
[2] = system: Eubacterium aerofaciens 1235; assay: as above; settings: read-out: 24 Hr. Minimum Inhibitory Concentration
[3] = system: Bacteroides fragilis sp. thetaiotaomicron 1438; assay: as above; settings: 24 h, read-out: 24 Hr. Minimum Inhibitory Concentration
[4] = system: Bacteroides fragilis sp. vulgatus 1211; assay: as above; settings: 24 h, read-out: 24 Hr. Minimum Inhibitory Concentration
[5] = system: Veillonella alcalescens 1; assay: as above; settings: read-out: 24 Hr. Minimum Inhibitory Concentration
[6] = system: Bacteroides fragilis sp. fragilis 1936B; assay: as above; settings: 24 h, read-out: 24 Hr. Minimum Inhibitory Concentration
[7] = system: Fusobacterium necrophorum 13859; assay: as above; settings: read-out: 24 Hr. Minimum Inhibitory Concentration
[8] = system: Actinomyces bovis 13684; assay: as above; settings: read-out: 24 Hr. Minimum Inhibitory Concentration
[9] = system: Propionibacterium acnes 79; assay: as above; settings: read-out: 24 Hr. Minimum Inhibitory Concentration
[10] = system: Clostridium innocuum 1373; assay: as above; settings: read-out: 24 Hr. Minimum Inhibitory Concentration
[11] = system: Fusobacterium symbiosum 1470; assay: as above; settings: read-out: 24 Hr. Minimum Inhibitory Concentration
[12] = system: Clostridium septicum bovine; assay: as above; settings: 24 h, read-out: 24 Hr. Minimum Inhibitory Concentration
Protocol: (§1) The susceptibility of anaerobic bacteria, both gram positive and gram negative, to a representative number of the novel compounds of this application was determined using the agar dilution method. The bacteria used were isolated from patients hospitalized at the Indiana University Medical Center. The isolates were identified in the anaerobe laboratory of the Medical Center by the criteria established by Dowell et al., Laboratory Methods in Anaerobic Bacteriology. Public Health Serv. Publ. No. 1803 (1968) [Center for Disease Control, Atlanta, Ga.]; and by Smith et al., The Pathogenic Anaerobic Bacteria, pages 96-136 (1968) [Charles C. Thomas, Publisher, Springfield, Ill.]. All the organisms were maintained in chopped meat glucose medium (Scott Labs) at room temperature.
(§2) The method used for the agar dilution tests was based on the studies of Sutter et al., Antimicrob. Ag. Chemother. 3, 188-193 (1973). The strains of anaerobic bacteria were grown in 16 × 120 mm. tubes for 16 to 18 hours in Thioglycolate medium without indicator--135C (Becton, Dickinson and Co.), to which was added 5 mcg. of hemin per milliliter prior to autoclaving, plus 1 mg. of sodium bicarbonate and 0.1 mcg. of filter-sterilized menadione per milliliter after autoclaving. The growth tubes for the bacteria Veillonella alcalescens were additionally supplemented with 5 mg. of sodium lactate per milliliter. The strains were adjusted to the turbidity of the No. 1 McFarland standard in Thioglycolate medium without indicator--135C containing an additional 0.13 percent Bacto-agar (Difco). Each strain was then applied to the surface of the petri plate (100 mm. × 15 mm.) by means of a replicator.
(§3) For the agar dilution studies, two-fold dilutions of the test compounds were prepared in deionized water to which was then added laked sheep blood and filter-sterilized menadione so the concentrations after the agar dilution were 5 percent and 10 mcg./ml. respectively. An equal volume of double strength Brucella agar (Becton, Dickinson and Co.) was mixed with each dilution in a water bath held at 50°C. and then poured onto the petri plates.
(§4) All of the procedures were done inside a plastic glove box, except for the incubation of the growth tubes and the pouring of the plates. After the plates hardened, they were put inside the glove box for a minimum of two hours before they were inoculated. Generally, the glove box procedures of Aranki et al., Applied Microbiology 17, 568-576 (1969), were followed, but the following modifications were used. Dry materials were introduced into the glove box by evacuating the lock to 28 inches of mercury and filling once with nitrogen gas, followed by evacuating in the same manner and filling with an 80 percent nitrogen plus 10 percent CO2 plus 10 percent hydrogen gas mixture. Liquid media and agar plates were introduced into the glove box by evacuating the lock to 10 inches of mercury and filling with gas four times. The nitrogen gas was used to fill the lock for the first two cycles of evacuation, with the gas mixture described above used for the final two fillings.
(§5) All the plates were incubated at 37°C. in Gas Pak jars (Becton, Dickinson and Co.) containing palladium-coated alumina catalysts (reactivated after each use). The results of the agar dilution tests were read after about 24 hours of incubation. The minimum inhibitory concentration (MIC) was recorded as the lowest concentration of test compound at which there was no growth.
(§6) The results of these in vitro tests are recorded in Charts 11 and 12 which follow. The test compounds are identified in the same manner as in the previous experiments. The antibiotics cephalothin and erythromycin were also run simultaneously with the novel compounds of this application, for comparison purposes, and the results are included in Charts 11 and 12 below.

[13] = system: Clostridium septicum 1128; assay: as above; settings: 24 h, read-out: 24 Hr. Minimum Inhibitory Concentration
Protocol: as §1, §2, §3, §4, §5, §6

[14] = system: Bacteroides fragilis sp. fragilis 1877; assay: as above; settings: 24 h, read-out: 24 Hr. Minimum Inhibitory Concentration
[15] = system: Propionibacterium acnes 44; assay: as above; settings: Cutibacterium acnes, 24 h; Propionibacterium acnes 44; read-out: 24 Hr. Minimum Inhibitory Concentration
[16] = system: Bacteroides fragilis sp. vulgatus 1563; assay: as above; settings: 24 h, read-out: 24 Hr. Minimum Inhibitory Concentration
[17] = system: Clostridium perfringens 81; assay: microbe, parasite or virus in culture; settings: Clostridium perfringens, 81, 24 h, read-out: 24 Hr. Minimum Inhibitory Concentration
[18] = system: Peptococcus anaerobius 1428; assay: Susceptibility of anaerobic bacteria, agar dilution; settings: 24 h, read-out: 24 Hr. Minimum Inhibitory Concentration
[19] = system: Clostridium ramosum 1313; assay: as above; settings: read-out: 24 Hr. Minimum Inhibitory Concentration
[20] = Collinsella aerofaciens, 24 h, Eubacterium aerofaciens 1235
[21] = Bacteroides fragilis sp. thetaiotaomicron 1438
[22] = Bacteroides fragilis sp. vulgatus 1211
[23] = Veillonella parvula, 24 h, Veillonella alcalescens 1
[24] = Bacteroides fragilis sp. fragilis 1936B
[25] = 24 h, Fusobacterium necrophorum 13859
[26] = Cutibacterium acnes, 24 h, Propionibacterium acnes 79
[27] = 24 h, Clostridium innocuum 1373
[28] = 24 h, Fusobacterium symbiosum 1470
[29] = Bacteroides fragilis sp. fragilis 1877
[30] = Bacteroides fragilis sp. vulgatus 1563
[31] = Thomasclavelia ramosa, 24 h, Clostridium ramosum 1313

CN(C)S(=O)(=O)Nc1c(C#N)c(-c2ncc([N+](=O)[O-])n2C)nn1C [Compound 20]
MIC [1]: 32 mg/L (≈ 90.3 µM) | MIC [2, 20]: 8 mg/L (≈ 22.6 µM) | MIC [3, 21]: 4 mg/L (≈ 11.3 µM) | MIC [4, 22]: 2 mg/L (≈ 5.64 µM) | MIC [5, 23]: 1 mg/L (≈ 2.82 µM) | MIC [6, 24]: 2 mg/L (≈ 5.64 µM) | MIC [7, 25]: 1 mg/L (≈ 2.82 µM) | MIC ([8]; 24 h, Actinomyces bovis 13684): 2 mg/L (≈ 5.64 µM) | MIC [9, 26]: 1 mg/L (≈ 2.82 µM) | MIC [10, 27]: 16 mg/L (≈ 45.2 µM) | MIC [11, 28]: 4 mg/L (≈ 11.3 µM) | MIC [12]: 8 mg/L (≈ 22.6 µM) | MIC [13]: 8 mg/L (≈ 22.6 µM) | MIC [14, 29]: 4 mg/L (≈ 11.3 µM) | MIC [15]: > 32 mg/L | MIC [16, 30]: 1 mg/L (≈ 2.82 µM) | MIC [17]: 8 mg/L (≈ 22.6 µM) | MIC ([18]; Peptococcus anaerobius 1428): 1 mg/L (≈ 2.82 µM) | MIC [19, 31]: 4 mg/L (≈ 11.3 µM)

CCOC=Nc1c(C#N)c(-c2ncc([N+](=O)[O-])n2C)nn1C [Compound 4, Ethyl N-[4-cyano-1-methyl-3-(1-methyl-5-nitro-2-imidazolyl)-pyrazol-5-yl]formimidate]
MIC [1]: 16 mg/L (≈ 52.8 µM) | MIC ([2]; Collinsella aerofaciens, 1235, 24 h): < 0.125 mg/L | MIC ([3]; Bacteroides fragilis): < 0.125 mg/L | MIC ([4]; Bacteroides fragilis): < 0.125 mg/L | MIC ([5]; Veillonella parvula, 1, 24 h): < 0.125 mg/L | MIC ([6]; Bacteroides fragilis): < 0.125 mg/L | MIC ([7]; Fusobacterium necrophorum, 13859, 24 h): < 0.125 mg/L | MIC ([8]; Actinomyces bovis, 13684, 24 h): < 0.125 mg/L | MIC ([9]; Cutibacterium acnes, 79, 24 h): < 0.125 mg/L | MIC ([10]; [Clostridium] innocuum, 1373, 24 h): < 0.125 mg/L | MIC ([11]; Fusobacterium, 1470, 24 h): < 0.125 mg/L | MIC [12]: < 0.125 mg/L | MIC [13]: < 0.125 mg/L | MIC ([14]; Bacteroides fragilis): < 0.125 mg/L | MIC [15]: > 32 mg/L | MIC ([16]; Bacteroides fragilis): < 0.125 mg/L | MIC [17]: < 0.125 mg/L | MIC [18]: < 0.125 mg/L | MIC ([19]; Thomasclavelia ramosa, 1313, 24 h): < 0.125 mg/L

Cn1nc(-c2ncc([N+](=O)[O-])n2C)c(C(=O)O)c1N [Compound 10A, 5-amino-1-methyl-3-(1-methyl-5-nitro-2-imidazolyl)pyrazole-4-carboxylic acid]
MIC [1]: 16 mg/L (≈ 60.1 µM) | MIC [2, 20]: < 0.5 mg/L | MIC [3, 21]: 0.25 mg/L (≈ 0.939 µM) | MIC [4, 22]: 0.25 mg/L (≈ 0.939 µM) | MIC [5, 23]: < 0.125 mg/L | MIC [6, 24]: 8 mg/L (≈ 30.1 µM) | MIC [7, 25]: < 0.125 mg/L | MIC ([8]; 24 h, Actinomyces bovis 13684): 4 mg/L (≈ 15 µM) | MIC [9, 26]: 0.5 mg/L (≈ 1.88 µM) | MIC [10, 27]: 0.5 mg/L (≈ 1.88 µM) | MIC [11, 28]: < 0.125 mg/L | MIC [12]: 1 mg/L (≈ 3.76 µM) | MIC [13]: 1 mg/L (≈ 3.76 µM) | MIC [14, 29]: 0.5 mg/L (≈ 1.88 µM) | MIC [15]: > 32 mg/L | MIC [16, 30]: 0.25 mg/L (≈ 0.939 µM) | MIC [17]: 0.5 mg/L (≈ 1.88 µM) | MIC ([18]; Peptococcus anaerobius 1428): 8 mg/L (≈ 30.1 µM) | MIC [19, 31]: 4 mg/L (≈ 15 µM)
